Key:
Assay type in all cases: physicochemical
[1] = LNP size and polydispersity index (PDI) by dynamic light scattering (DLS)
[2] = Encapsulation efficiency (EE %) by fluorescence based Ribogreen assay
[3] = LNP Zeta potential measured using a Zetasizer (Malvern); conditions: for Zeta potential: hEPO mRNA; for Zeta potential (mV): LNP with hEPO mRNA, N:P ratio 6
[4] = Table 9, LNP 50:10:38.5:1.5 mol %, hEPO mRNA, N:P 6
[5] = Table 9, LNP Lipid:DSPC:Cholesterol:DMG-PEG2k 50:10:38.5:1.5 mol %, hEPO mRNA, N:P 6
[6] = Table 9, LNP 50:10:38.5:1.5 mol %, N:P 6
[7] = Table 1, LNP lipid:DSPC:Cholesterol:DMG-PEG2k 50:10:38.5:1.5 mol %, hEPO mRNA, N:P 6
[8] = Table 3, LNP 50:10:38.5:1.5 mol %, hEPO mRNA, N:P 6
[9] = Table 4, LNP 40:10:48.5:1.5 mol %, hEPO mRNA, N:P 6
[10] = Table 4, LNP 40:10:48.5:1.5 mol %, hEPO mRNA, N:P 9
[11] = Table 4, LNP 40:10:48.5:1.5 mol %, hEPO mRNA, N:P 12
[12] = Table 4, LNP 50:10:38.5:1.5 mol %, hEPO mRNA, N:P 6
[13] = Table 4, LNP 50:10:38.5:1.5 mol %, hEPO mRNA, N:P 9
[14] = Table 4, LNP 50:10:38.5:1.5 mol %, hEPO mRNA, N:P 12
[15] = Table 4, LNP 60:0:38.5:1.5 mol %, hEPO mRNA, N:P 6
[16] = Table 4, LNP 60:0:38.5:1.5 mol %, hEPO mRNA, N:P 9
[17] = Table 4, LNP 60:0:38.5:1.5 mol %, hEPO mRNA, N:P 12
[18] = Table 1, LNP lipid:DSPC:Cholesterol:DMG-PEG2k 50:10:38.5:1.5 mol %, N:P 6
[19] = Table 5, LNP 50:10:38.5:1.5 mol %, hEPO mRNA, N:P 6
[20] = Table 5, LNP Lipid:DSPC:Cholesterol:DMG-PEG2k 50:10:38.5:1.5 mol %, hEPO mRNA, N:P 6
[21] = Table 5, LNP 50:10:38.5:1.5 mol %, N:P 6
[22] = Table 10, LNP with hEPO mRNA, Lipid:DSPC:Cholesterol:DMG-PEG2k 50:10:38.5:1.5 mol %, N:P ratio 6, DLS
[23] = Table 10, LNP with hEPO mRNA, Lipid:DSPC:Cholesterol:DMG-PEG2k 50:10:38.5:1.5 mol %, N:P ratio 6, Ribogreen assay
[24] = Table 10, Lipid:DSPC:Cholesterol:DMG-PEG2k 50:10:38.5:1.5 mol %
[25] = Table 8, LNP 50:10:38.5:1.5 mol %, hEPO mRNA, N:P 6
[26] = Table 8, LNP Lipid:DSPC:Cholesterol:DMG-PEG2k 50:10:38.5:1.5 mol %, hEPO mRNA, N:P 6
[27] = Table 8, LNP 50:10:38.5:1.5 mol %, N:P 6
[28] = Table 11, LNP with hEPO mRNA, Lipid:DSPC:Cholesterol:DMG-PEG2k 50:10:38.5:1.5 mol % (ALC-0315: 46.3:9.4:42.7:1.6), N:P ratio 6, HEPES/sodium chloride/sucrose buffer, stored at −80C

CCCCCCCCC(CCCCCC)C(=O)OCCN(CCOC(=O)C(CCCCCC)CCCCCCCC)C(=O)CN(C)CCC.Cl (stereo not drawn) [Compound 969]
PDI [1, 4]: 0.15 | Size [1, 5]: 70 nm | Encapsulation Efficiency % [2, 4]: 99.4% | Zeta potential [3, 6]: −28.83 mV

CCCCCCCCC(CCCCCC)C(=O)OCCN(CCOC(=O)C(CCCCCC)CCCCCCCC)C(=O)C(N)Cc1ccccc1 (stereo not drawn) [Compound 117]
PDI [1, 7]: 0.07 | Size [1, 7]: 61.6 nm | PDI [1, 8]: 0.071 | Size ([1]; Table 3, LNP lipid:DSPC:Cholesterol:DMG-PEG2k 50:10:38.5:1.5 mol %, hEPO mRNA, N:P 6): 70.6 nm | PDI [1, 9]: 0.204 | Size [1, 9]: 56.4 nm | PDI [1, 10]: 0.354 | Size [1, 10]: 67.8 nm | PDI [1, 11]: 0.119 | Size [1, 11]: 75.7 nm | PDI [1, 12]: 0.134 | PDI [1, 13]: 0.365 | Size [1, 13]: 65.3 nm | PDI [1, 14]: 0.515 | Size [1, 14]: 67.8 nm | PDI [1, 15]: 0.089 | Size [1, 15]: 125 nm | PDI [1, 16]: 0.018 | Size [1, 16]: 123 nm | PDI [1, 17]: 0.263 | Size [1, 17]: 55 nm | Size ([1]; Table 4, LNP Lipid:DSPC:Cholesterol:DMG-PEG2k 50:10:38.5:1.5 mol %, hEPO mRNA, N:P 6): 62.2 nm | Encapsulation Efficiency % [2, 7]: 96.7% | Encapsulation Efficiency % [2, 8]: 95.1% | Encapsulation Efficiency % [2, 9]: 87.7% | Encapsulation Efficiency % [2, 10]: 98% | Encapsulation Efficiency % [2, 11]: 98.3% | Encapsulation Efficiency % [2, 12]: 96.3% | Encapsulation Efficiency % [2, 13]: 98.6% | Encapsulation Efficiency % [2, 14]: 98.2% | Encapsulation Efficiency % [2, 15]: 90.2% | Encapsulation Efficiency % [2, 16]: 92.3% | Encapsulation Efficiency % [2, 17]: 94.8% | Zeta potential [3, 18]: −5.265 mV | Zeta potential ([3]; Table 4, LNP 40:10:48.5:1.5 mol %, N:P 6): −0.6716 mV | Zeta potential ([3]; Table 4, LNP 40:10:48.5:1.5 mol %, N:P 9): −1.95 mV | Zeta potential ([3]; Table 4, LNP 40:10:48.5:1.5 mol %, N:P 12): −3.302 mV | Zeta potential ([3]; Table 4, LNP 50:10:38.5:1.5 mol %, N:P 6): −4.369 mV | Zeta potential ([3]; Table 4, LNP 50:10:38.5:1.5 mol %, N:P 9): −2.051 mV | Zeta potential ([3]; Table 4, LNP 50:10:38.5:1.5 mol %, N:P 12): −4.408 mV | Zeta potential ([3]; Table 4, LNP 60:0:38.5:1.5 mol %, N:P 6): −5.393 mV | Zeta potential ([3]; Table 4, LNP 60:0:38.5:1.5 mol %, N:P 9): −5.043 mV | Zeta potential ([3]; Table 4, LNP 60:0:38.5:1.5 mol %, N:P 12): −5.125 mV

CCCCCCCCC(CC)C(=O)OCCN(CCOC(=O)C(CC)CCCCCCCC)C(=O)C(C)N (stereo not drawn) [Compound 610]
PDI [1, 19]: 0.202 | Size [1, 20]: 77.3 nm | Encapsulation Efficiency % [2, 19]: 99.7% | Zeta potential [3, 21]: −1.535 mV

CC/C=C\CCCCC(=O)OCCN(CCOC(=O)C(CCCCCC)CCCCCCCC)C(=O)CCN(CC)CC (stereo not drawn) [Compound 917c]
PDI [1, 22]: 0.122 | Size (nm) [1, 22]: 106.9 nm | Encapsulation Efficiency % [2, 23]: 84% | Zeta potential (mV) [3, 24]: −4.5 mV

CCCCCCCCCC(CCCCCCCCC)C(=O)OCCN(CCOC(=O)C(CCCCCCCCC)CCCCCCCCC)C(=O)CCN(C)CC [Compound 917e]
PDI [1, 22]: 0.222 | Size (nm) [1, 22]: 52.5 nm | Encapsulation Efficiency % [2, 23]: 95.4% | Zeta potential (mV) [3, 24]: −4.2 mV

CCCCCCCCC(CCCCCC)C(=O)OCCN(CCOC(=O)C(CCCCCC)CCCCCCCC)C(=O)C(N)CO (stereo not drawn) [Compound 130]
PDI [1, 7]: 0.146 | Size [1, 7]: 74.2 nm | Encapsulation Efficiency % [2, 7]: 95.1% | Zeta potential [3, 18]: −5.059 mV

CCCCCCCCCC(CCCCCCCCC)C(=O)OCCN(CCOC(=O)C(CCCCCCCCC)CCCCCCCCC)C(=O)CN(C)C.Cl [Compound 963]
PDI [1, 4]: 0.447 | Size [1, 5]: 76.1 nm | Encapsulation Efficiency % [2, 4]: 99.2% | Zeta potential [3, 6]: −41.21 mV

CCCCCCCCC(CCCCCC)C(=O)OCCN(CCOC(=O)C(CCCCCC)CCCCCCCC)C(=O)CNCC.Cl (stereo not drawn) [Compound 965]
PDI [1, 4]: 0.216 | Size [1, 5]: 76.3 nm | Encapsulation Efficiency % [2, 4]: 98.6% | Zeta potential [3, 6]: −14.27 mV

CCCCCCCCC(CCCCCC)C(=O)OCCN(CCOC(=O)C(CCCCCC)CCCCCCCC)C(=O)CCCN(C)CCO.Cl (stereo not drawn) [Compound 986]
PDI [1, 25]: 0.088 | Size [1, 26]: 112.9 nm | Encapsulation Efficiency % [2, 25]: 99.9% | Zeta potential [3, 27]: −8.2 mV

CCCCCCCCC(CCCCCC)C(=O)OCCN(CCOC(=O)C(CCCCCC)CCCCCCCC)C(=O)CCCN(C)C (stereo not drawn) [Compound 931]
PDI [1, 25]: 0.117 | Size [1, 26]: 125.8 nm | Encapsulation Efficiency % [2, 25]: 99.9% | Zeta potential [3, 27]: −8.457 mV

CCCCCCCC/C=C\CCCCCCCC(=O)OCCN(CCOC(=O)CCCCCCC/C=C\CCCCCCCC)C(=O)C(N)CO (stereo not drawn) [Compound 132]
PDI [1, 7]: 0.15 | Size [1, 7]: 75.4 nm | Encapsulation Efficiency % [2, 7]: 92.9% | Zeta potential [3, 18]: −4.36 mV

CCCCCCCCC(CCCCCC)C(=O)OCCN(CCOC(=O)C(CCCCCC)CCCCCCCC)C(=O)CN(C)CCO.Cl (stereo not drawn) [Compound 960g]
PDI [1, 4]: 0.254 | Size [1, 5]: 72.6 nm | Encapsulation Efficiency % [2, 4]: 99% | Zeta potential [3, 6]: −12.1 mV

CCCCCCCCC(CCCCCC)C(=O)OCCN(CCOC(=O)CCCCCCC(C)C)C(=O)CCN(CC)CC (stereo not drawn) [Compound 917d]
PDI [1, 22]: 0.096 | Size (nm) [1, 22]: 122 nm | Encapsulation Efficiency % [2, 23]: 60.3% | Zeta potential (mV) [3, 24]: −3.3 mV

CCCCCCCCCC(CCCCCCCCC)C(=O)OCCN(CCOC(=O)C(CCCCCCCCC)CCCCCCCCC)C(=O)C(C)N (stereo not drawn) [Compound 614]
PDI [1, 19]: 0.443 | Size [1, 20]: 79.1 nm | Encapsulation Efficiency % [2, 19]: 99.7% | Zeta potential [3, 21]: −8.485 mV

CCCCCCCC/C=C\CCCCCCCC(=O)OCCN(CCOC(=O)CCCCCCC/C=C\CCCCCCCC)C(=O)CN [Compound 101]
PDI [1, 7]: 0.088 | Size [1, 7]: 62.6 nm | Encapsulation Efficiency % [2, 7]: 97.9% | Zeta potential [3, 18]: 4.394 mV

CCCCCCCCC(CCCCCC)C(=O)OCCN(CCOC(=O)C(CCCCCC)CCCCCCCC)C(=O)C(C)CCN1CCCC1.Cl (stereo not drawn) [Compound 987l]
PDI [1, 28]: 0.051 | Size (nm) [1, 28]: 76.4 nm | Encapsulation Efficiency % [2, 28]: 95.9% | Zeta potential (mV) ([3]; Table 11, Lipid:DSPC:Cholesterol:DMG-PEG2k 50:10:38.5:1.5 mol % (ALC-0315: 46.3:9.4:42.7:1.6), HEPES/sodium chloride/sucrose buffer, stored at −80C): −2.9 mV

CCCCCCCCC(CCCCCC)C(=O)OCCN(CCOC(=O)C(CCCCCC)CCCCCCCC)C(=O)CN(CC)CC.Cl (stereo not drawn) [Compound 967]
PDI [1, 4]: 0.101 | Size [1, 5]: 82.1 nm | Encapsulation Efficiency % [2, 4]: 97.9% | Zeta potential [3, 6]: −21.99 mV

CCCCCC(CCCCC)C(=O)OCCN(CCOC(=O)C(CCCCC)CCCCC)C(=O)CN [Compound 601]
PDI [1, 19]: 0.185 | Size [1, 20]: 83.8 nm | Encapsulation Efficiency % [2, 19]: 99.8% | Zeta potential [3, 21]: −4.878 mV

Source: patent US20250268826A1, “IONIZABLE LIPIDOID COMPOSITIONS AND THERAPEUTIC USES THEREOF” (Flagship Pioneering Innovations VII, LLC, priority 2023, published 2025)
